Assay results from US7935688B2, “Vitamin D-like compound” (Chugai Seiyaku Kabushiki Kaisha, priority 2005, dated 2011).

Columns and labels:
[1] = test system: osteocalcin production in MG-63 cells; test: Osteocalcin production in MG-63 cells (Gla-type Osteocalcin EIA); format: cell-based, human; conditions: (EC50 value of 1,25(OH)2D3/EC50 value of each compound)×100; eight hours exposure, then four days culture
Procedure: mg-63 was obtained from Institute for Fermentation, Osaka as a human osteoblast-like cell line. MG-63 cells were maintained and cultured in a MEM medium (Minimum essential medium; pH 7.0; Invitrogen Corporation, Carlsbad, Calif., USA) containing 5% fetal bovine serum (FBS; HyClone, Logan, Utah, USA).
MG-63 cells were adjusted to a density of 4.0×10^4 cells/mL, plated in a 96-well plate at 200 μL per well, and cultured under conditions of 37° C. and 5% carbon dioxide for 24 hours.
After removing the medium, MEM containing 5% charcoal/dextran treated FBS (DCC-FBS; Hyclone, Logan, Utah, USA) was added at 180 μL/well. The test substance (1.0×10^−3 mol/L) was diluted with dimethyl sulfoxide (DMSO) to 1.0×10^−4 mol/L, 1.0×10^−5 mol/L, 1.0×10^−6 mol/L, 1.0×10^−7 mol/L and 1.0×10^−8 mol/L. 1,25(OH)2D3 was used as a positive control. Like the test substance, 1,25(OH)2D3 was diluted with DMSO. 0.02 mL of the positive control and the test substance diluted 100-fold with MEM containing 5% DCC-FCS was added to each well of the 96-well plate, so that the final drug concentration was 1.0×10^−6 mol/L to 1.0×10^−11 mol/L. Thereafter, the cells were cultured under conditions of 37° C. and 5% carbon dioxide for eight hours.
After culturing for eight hours, the medium was removed, and MEM containing 5% DCC-FBS was added at 0.2 mL per well. The cells were cultured under conditions of 37° C. and 5% carbon dioxide for four days, and the medium was recovered. The medium was stored at −80° C. until osteocalcin measurement.
The Gla-type Osteocalcin EIA kit (Takara Bio Inc., Tokyo, Japan) was used for measurement of osteocalcin. Measurement was carried out using a microplate reader (Model 3550, Bio-Rad Laboratories, Inc., Hercules, Calif., USA) at a wavelength of 450 nm, and the results were analyzed by Microplate Manager III (Bio-Rad Laboratories, Inc., ver. 1.57).
The median effective concentration (EC50) was calculated from the osteocalcin concentration. Potency of induction of each compound was calculated as a ratio of EC50 of 1,25(OH)2D3 to EC50 of the compound. The relation between diseases and induction of osteocalcin production is described in Lancet (1984 May 19), 1 (8386), 1091-3; Steroids 66, 159-170 (2001); and Journal of Steroid Biochemistry & Molecular Biology 89-90, 269-271 (2004), for example.
The osteocalcin production level in MG-63 cells (%) was calculated by the formula: (EC50 value of 1,25(OH)2D3/EC50 value of each compound)×100.

[2] = test system: Sprague-Dawley female rats subjected to ovariectomy (OVX); test: Effect of increasing bone density in ovariectomized rats (dual X-ray bone densitometry); format: in vivo, rat; conditions: forcibly orally, five times per week, pathological control group (vehicle) = 100%
Procedure: The compound of the present invention was adjusted to each concentration using middle chain triglyceride (MCT) as a base. The adjusted solution was stored under shading at 4° C. until use.
Seven-week-old Sprague-Dawley (Crj:CD(SD)) female rats (Charles River Laboratories Japan, Inc.) were preliminarily bred for one week in an environment at a room temperature of 20 to 26° C., at a humidity of 35 to 75% and with an air change of 10 times or more per hour. The rats were allowed to freely take tap water and CE-2 (CLEA Japan, Inc.) as a feed.
After preliminary breeding, the animals were subjected to ovariectomy (OVX) and divided into groups (eight animals per group) on the day after the operation. Only MCT as a base was forcibly orally administered to the sham operation group (sham) and the pathological control group (OVX-vehicle) at a dose of 1 mL/kg (five times per week). The compound of the present invention was also forcibly orally administered at the same dose five times per week.
The animals were bred in a metabolic cage and urine was collected for 24 hours after the final administration. Blood was collected from the abdominal aorta under ether anesthesia for 24 hours after the final administration. The blood was allowed to stand at room temperature for 30 minutes and then centrifuged to provide serum. The femur and lumbar spine were collected and stored in 70% ethanol until bone density measurement.
The bone density of the femur and the second to fifth lumbar spines of the isolated lumbar spines was measured by the dual X-ray bone densitometry system DCS-600-EX (ALOKA). The distal femur bone density was measured for three […] regions out of 10 regions of the femur equally divided in length. The bone density in each site was described based on the bone density of the pathological control group (vehicle group) in each experiment as 100%.
The effects of the compounds of the present invention on the lumbar spine bone density are shown in Table 2 as an example of the obtained results.

## CCC(CC)(c1ccc(/C=C/C(O)(C(F)(F)F)C(F)(F)F)c(C)c1)c1ccc(-c2nc(CC(=O)O)cs2)c(C)c1 [Example 76, [2-(4-{1-ethyl-1-[3-methyl-4-((E)-4,4,4-trifluoro-3-hydroxy-3-trifluoromethyl-1-butenyl)-phenyl]-propyl}-2-methyl-phenyl)-thiazol-4-yl]-acetic Acid]
[1]
  Osteocalcin production level in MG-63 cells (%): 407%
[2]; 0.015 μg/kg
  Lumbar spine bone density (%): 110.22%
[2]; 0.03 μg/kg
  Lumbar spine bone density (%): 111.00%
